Test results: ChEMBL document CHEMBL5380815, “Probing Ligand Binding Sites on Large Proteins by Nuclear Magnetic Resonance Spectroscopy of Genetically Encoded Non-Canonical Amino Acids” (J Med Chem, 2023)
Active and inactive are the calls of the source. No cut-off for these calls is given here.

What was measured:
[1] = molecular target: T1, Replicase polyprotein 1ab (Severe acute respiratory syndrome coronavirus 2, UniProt P0DTD1); test: Binding affinity to SARS-COV2 main protease assessed as dissociation constant by mass spectrometry analysis
[2] = molecular target: T1, Replicase polyprotein 1ab; test: Binding affinity to SARS-COV2 main protease assessed as dissociation constant by analytical ultracentrifugation analysis
[3] = molecular target: T1, Replicase polyprotein 1ab; test: Binding affinity to wild type SARS-COV2 main protease expressed in Escherichia coli BL21 (DE3) assessed as dissociation constant by small angle X-ray scattering analysis
[4] = molecular target: Replicase polyprotein 1ab (Severe acute respiratory syndrome coronavirus 2) (UniProt P0DTD1); test: Inhibition of wild type recombinant SARS-COV2 main protease expressed in Escherichia coli BL21 (DE3) using DABCYL-KTSAVLQSGFRKME-EDANS-NH2 as fluorogenic substrate at 1.5 to 50 uM preincubated for 10 mins followed by substrate addition by FRET assay; settings: dose 1.5-50 µM
SARS-CoV-2 = test: Antiviral activity against SARS-COV2 infected in African green monkey Vero E6 cells assessed as reduction of viral titer by immunofocus assay; assay type: functional, organism-based; settings: Severe acute respiratory syndrome coronavirus 2, Vero C1008

`CC(=O)[C@@H]1CSCC(=O)N[C@H](Cc2ccc(O)cc2)C(=O)N[C@@H](CC(C)C)C(=O)N[C@@H](CCC(N)=O)C(=O)N[C@@H](Cc2ccc(O)cc2)C(=O)N[C@@H](C)C(=O)N[C@@H](C(C)C)C(=O)N[C@@H](CC(C)C)C(=O)N[C@@H](CCCNC(=N)N)C(=O)N[C@@H](Cc2c[nH]cn2)C(=O)N[C@@H](CCCCN)C(=O)N[C@@H](CCCNC(=N)N)C(=O)N[C@@H](CCCNC(=N)N)C(=O)N[C@@H](CCC(=O)O)C(=O)C1` gave a Kd [1] of 140 nM, a Kd [2] of 2500 nM and a Kd [3] of 7000 nM.
For `CCOc1cc2ncc(C#N)c(Nc3ccc(F)c(Cl)c3)c2cc1NC(=O)/C=C/CN(C)C` [PELITINIB], the inhibition [4] was “inactive” and the EC50 (SARS-CoV-2) was 1250 nM.
